Measured values: ChEMBL document CHEMBL1154419, “Pharmacodynamic effects of telavancin against methicillin-resistant and methicillin-susceptible Staphylococcus aureus strains in the presence of human albumin or serum and in an in vitro kinetic model” (Antimicrob Agents Chemother, 2007)

Tested on: Staphylococcus aureus
Test: Antibacterial activity against methicillin-resistant Staphylococcus aureus COL infected New Zealand white rabbit endocarditis model assessed as reduction in mean aortic vegetation titer at 30 mg/kg, iv twice daily after 4 days
Type: functional, Aorta

CN[C@H](CC(C)C)C(=O)N[C@H]1C(=O)N[C@@H](CC(N)=O)C(=O)N[C@H]2C(=O)N[C@H]3C(=O)N[C@H](C(=O)N[C@H](C(=O)O)c4cc(O)cc(O)c4-c4cc3ccc4O)[C@H](O)c3ccc(c(Cl)c3)Oc3cc2cc(c3O[C@@H]2O[C@H](CO)[C@@H](O)[C@H](O)[C@H]2O[C@H]2C[C@](C)(N)[C@H](O)[C@H](C)O2)Oc2ccc(cc2Cl)[C@H]1O [VANCOMYCIN] gave a log10CFU/g of 3.4.
